Earlier results in publication PMC6606825 (Journal of Ginseng Research, 2018).

Tested on: P-gp
Details: in vitro and in situ; cited from earlier work

| SMILES | P-gp inhibition |
| --- | --- |
| CC(C)=CCC[C@](C)(O)[C@H]1CC[C@]2(C)[C@@H]1[C@H](O)C[C@@H]1[C@@]3(C)CC[C@H](O)C(C)(C)[C@@H]3CC[C@]12C [20(S)-PPD, 20(S)-protopanaxadiol] | inhibit P-gp |
| CC(C)=CCC[C@](C)(O[C@@H]1O[C@H](CO)[C@@H](O)[C@H](O)[C@H]1O)[C@H]1CC[C@]2(C)[C@@H]1[C@H](O)C[C@@H]1[C@@]3(C)CC[C@H](O)C(C)(C)[C@@H]3CC[C@]12C [Ginsenoside compound K, 20-O-beta-D-glucopyranosyl-20(S)-protopanaxadiol] | inhibit P-gp |
